Reference: patent publication US9440952B2, “Compounds inhibiting leucine-rich repeat kinase enzyme activity” (Merck Sharp & Dohme Corp., priority 2013, dated 2016)

What follows are molecules tested against T1, LRRK2(G2019S mutation, GST-LRRK2(amino acids 970-2527)) (Homo sapiens, UniProt Q5S007, G2019S) (assay: LRRK2 Km ATP LanthaScreen Assay). Conditions: Km ATP LanthaScreen Assay; LRRK2 G2019S; mean IC50 values; Examples 185-215; read-out: LRRK2 IC5).
T1 construct: GST-LRRK2(amino acids 970-2527); GST (N); purchased Life Technologies Corporation
T1 sequence (Q5S007 970-2527 G2019S): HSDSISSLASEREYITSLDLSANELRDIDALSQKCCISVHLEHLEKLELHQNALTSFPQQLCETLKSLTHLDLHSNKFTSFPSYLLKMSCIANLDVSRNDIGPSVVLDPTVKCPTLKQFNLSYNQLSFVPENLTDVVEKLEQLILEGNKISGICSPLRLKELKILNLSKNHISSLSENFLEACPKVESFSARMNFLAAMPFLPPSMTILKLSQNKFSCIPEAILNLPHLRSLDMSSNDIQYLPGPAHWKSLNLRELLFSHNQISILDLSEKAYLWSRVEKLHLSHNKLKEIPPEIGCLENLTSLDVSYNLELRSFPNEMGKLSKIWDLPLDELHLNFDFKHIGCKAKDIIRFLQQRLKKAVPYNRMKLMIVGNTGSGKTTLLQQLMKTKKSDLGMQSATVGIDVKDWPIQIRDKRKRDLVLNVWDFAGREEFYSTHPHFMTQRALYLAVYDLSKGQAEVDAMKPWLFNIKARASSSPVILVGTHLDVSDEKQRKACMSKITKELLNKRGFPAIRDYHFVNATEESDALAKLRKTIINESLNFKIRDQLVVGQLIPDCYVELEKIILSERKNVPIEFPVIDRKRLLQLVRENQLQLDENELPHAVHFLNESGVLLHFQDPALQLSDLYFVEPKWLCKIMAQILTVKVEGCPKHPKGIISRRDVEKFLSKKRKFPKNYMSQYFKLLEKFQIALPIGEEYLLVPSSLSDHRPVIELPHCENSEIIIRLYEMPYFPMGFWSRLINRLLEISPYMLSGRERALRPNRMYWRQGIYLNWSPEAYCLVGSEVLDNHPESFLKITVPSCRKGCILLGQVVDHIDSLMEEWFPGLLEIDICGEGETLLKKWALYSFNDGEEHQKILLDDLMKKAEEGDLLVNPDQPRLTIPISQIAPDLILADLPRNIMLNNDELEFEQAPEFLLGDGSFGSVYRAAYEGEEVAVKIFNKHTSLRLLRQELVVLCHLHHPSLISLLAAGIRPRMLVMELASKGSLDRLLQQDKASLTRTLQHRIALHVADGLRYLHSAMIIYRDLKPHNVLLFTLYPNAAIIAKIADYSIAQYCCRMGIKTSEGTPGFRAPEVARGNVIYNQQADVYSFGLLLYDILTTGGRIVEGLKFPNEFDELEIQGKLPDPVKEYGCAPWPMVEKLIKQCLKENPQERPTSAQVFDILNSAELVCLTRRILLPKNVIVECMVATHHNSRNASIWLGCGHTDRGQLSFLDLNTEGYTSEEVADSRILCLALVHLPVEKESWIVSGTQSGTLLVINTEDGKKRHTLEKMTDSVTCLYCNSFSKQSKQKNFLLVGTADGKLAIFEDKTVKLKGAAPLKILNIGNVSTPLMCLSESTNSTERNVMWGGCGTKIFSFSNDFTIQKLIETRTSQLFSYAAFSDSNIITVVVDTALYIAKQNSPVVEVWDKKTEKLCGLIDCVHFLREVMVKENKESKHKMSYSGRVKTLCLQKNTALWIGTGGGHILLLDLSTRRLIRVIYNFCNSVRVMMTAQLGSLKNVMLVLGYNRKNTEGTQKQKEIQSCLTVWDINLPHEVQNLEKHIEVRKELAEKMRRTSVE
Assay type: biochemical
Procedure: Unless otherwise noted, all LRRK2 IC50 data presented in tables refers to the LRRK2 Km ATP LanthaScreen™ Assay that is described in the Biological Assay section.
The data presented for the 5 mM and Km ATP LanthaScreen™ Assay represents mean IC50 values based on several test results and may have reasonable. deviations depending on the specific conditions and reagents used. Reagents for the LRRK2 5 mM and Km ATP LanthaScreen™ Assay were purchased from Life Technologies Corporation.
Results are analysed using Assay Data Analyzer.
Work on `CC(C)Oc1ccc2[nH]nc(-c3ccnc(N4CC(F)(F)C4)c3)c2c1` [Example 213] yielded an IC50 of 16.7 nM.

Same assay, conditions: Km ATP LanthaScreen Assay; LRRK2 G2019S; mean IC50 values; read-out: LRRK2 IC50
`c1ccc2c(-c3ccnc(N4CCCCC4)c3)n[nH]c2c1` [Example 6] was tested, and the IC50 was 16 nM.
`FC(F)(F)Oc1ccc2[nH]nc(-c3ccnc(N4CC(n5cccn5)C4)c3)c2c1` [Example 241] gave an IC50 of 315 nM.
`Cc1nc2c(o1)CCN(c1cc(-c3n[nH]c4ccc(OC(F)(F)F)cc34)ccn1)C2` [Example 251] gave an IC50 of 431 nM.
Molecule `CN1CCN(c2cc(-c3n[nH]c4ccc(OC(F)(F)F)cc34)ccn2)CC1` [Example 234] has an IC50 of 82.5 nM.
`OCCC1CN(c2cc(-c3n[nH]c4ccccc34)ccn2)CCO1` (stereo not drawn) [Example 66] gave an IC50 of 15 nM.
`c1ccc2c(-c3ccnc(N4CCCCCC4)c3)n[nH]c2c1` [Example 2] showed an IC50 of 76 nM.
`CC(C)Oc1ccc2[nH]nc(-c3ccnc(NC(=O)CC4CC4)c3)c2c1` [Example 152] showed an IC50 of 35.8 nM.
Molecule `CN(Cc1ccc2[nH]nc(-c3ccnc(N4CCOCC4)c3)c2c1)Cc1ccco1` [Example 94] has an IC50 of 13 nM.
`CC(C)Oc1ccc2[nH]nc(-c3ccnc(NC4Cc5ccccc5C4)c3)c2c1` [Example 130] was tested, and the IC50 was 13.3 nM.
For `CCOc1ccc2[nH]nc(-c3ccnc(N4CCC(F)(F)C4)c3)c2c1` [Example 223], the IC50 was 13.5 nM.
In the case of `c1cc(-c2n[nH]c3ccc(CN4CCCCC4)cc23)cc(N2CCOCC2)n1` [Example 88], the IC50 is reported as 164 nM.
For `CC(C)Oc1ccc2[nH]nc(-c3ccnc(N4CCCC(CO)C4)c3)c2c1` (stereo not drawn) [Example 131], the IC50 was 1.5 nM.
Molecule `CC(C)Oc1ccc2[nH]nc(-c3ccnc(N4CC(n5cnnc5)C4)c3)c2c1` [Example 180] has an IC50 of 10.2 nM.
Work on `CC(C)Oc1ccc2[nH]nc(-c3ccnc(NC(=O)C4CC4c4cncnc4)c3)c2c1` (stereo not drawn) [Example 158] yielded an IC50 of 30.9 nM.
`FC(F)(F)Oc1ccc2[nH]nc(-c3ccnc(N4CCCC4)c3)c2c1` [Example 233] showed an IC50 of 130 nM.
For `CC(C)Oc1ccc2[nH]nc(-c3ccnc(N4CCC(n5ccnc5)C4)c3)c2c1` (stereo not drawn) [Example 171], the IC50 was 3.1 nM.
With `FC(F)=CCCOc1ccc2[nH]nc(-c3ccnc(N4CCOCC4)c3)c2c1` [Example 81] the IC50 was 4.8 nM.
`CCOc1ccc2[nH]nc(-c3ccnc(N4CCC5OCCC54)c3)c2c1` (stereo not drawn) [Example 220] was tested, and the IC50 was 22.6 nM.
`c1cncc(N2CCN(c3cc(-c4n[nH]c5ccccc45)ccn3)CC2)c1` [Example 24] was tested, and the IC50 was 18 nM.
`c1ccc2c(-c3ccnc(N4CCC5OCCC54)c3)n[nH]c2c1` (stereo not drawn) [Example 63] showed an IC50 of 40 nM.
Molecule `c1ccc2c(-c3ccnc(N4CCC(c5ccncc5)CC4)c3)n[nH]c2c1` [Example 16] has an IC50 of 186 nM.
With `CO[C@@H]1CCN(c2cc(-c3n[nH]c4ccc(OC(C)C)cc34)ccn2)C1` [Example 178] the IC50 was 5 nM.
`CC(CO)Nc1cc(-c2n[nH]c3ccc(OC(C)C)cc23)ccn1` (stereo not drawn) [Example 129] gave an IC50 of 2120 nM.
For `CC(C)Oc1ccc2[nH]nc(-c3ccnc(NC(=O)C4CCCC4)c3)c2c1` [Example 156], the IC50 was 53.1 nM.
`CCc1nnc2n1CCN(c1cc(-c3n[nH]c4ccc(OC(F)(F)F)cc34)ccn1)C2` [Example 249] was tested, and the IC50 was 190 nM.
Molecule `COC1CCCN(c2cc(-c3n[nH]c4ccc(OC(C)C)cc34)ccn2)C1` (stereo not drawn) [Example 138] has an IC50 of 11.4 nM.
For `c1ccc2c(-c3ccnc(N4CC5CCC(C4)O5)c3)n[nH]c2c1` [Example 402], the IC50 was 27 nM.
`CN(C)c1cc(-c2n[nH]c3ccccc23)ccn1` [Example 30] showed an IC50 of 33 nM.
`OC1CCN(c2cc(-c3n[nH]c4ccccc34)ccn2)CC1` [Example 10] was tested, and the IC50 was 24 nM.
`O=C1CN(c2cc(-c3n[nH]c4ccccc34)ccn2)CCN1` [Example 49] was tested, and the IC50 was 23 nM.
With `CC(C)Oc1ccc2[nH]nc(-c3ccnc(NCC4CCCO4)c3)c2c1` (stereo not drawn) [Example 135] the IC50 was 3.2 nM.
With `OCC1CN(c2cc(-c3n[nH]c4ccccc34)ccn2)CCCO1` (stereo not drawn) [Example 37] the IC50 was 64 nM.
For `CN(C)C(=O)CN1CCN(c2cc(-c3n[nH]c4ccccc34)ccn2)CC1` [Example 65], the IC50 was 6.8 nM.
For `CN1CCC(CNc2cc(-c3n[nH]c4ccccc34)ccn2)C1` (stereo not drawn) [Example 54], the IC50 was 47 nM.
With `O=C(O)[C@@H]1CCCN(c2cc(-c3n[nH]c4ccccc34)ccn2)C1` [Example 52] the IC50 was 31 nM.
For `CCOc1ccc2[nH]nc(-c3ccnc(N4CCC4)c3)c2c1` [Example 230], the IC50 was 29.4 nM.
In the case of `CN(C)c1cc(-c2n[nH]c3ccc(Nc4cccc(S(C)(=O)=O)c4)cc23)ccn1` [Example 109], the IC50 is reported as 34 nM.
`CC(C)Oc1ccc2[nH]nc(-c3ccnc(NCCO)c3)c2c1` [Example 140] gave an IC50 of 7.3 nM.
`OCCOCCNc1cc(-c2n[nH]c3ccccc23)ccn1` [Example 58] showed an IC50 of 51 nM.
`c1ccc(N2CCN(c3cc(-c4n[nH]c5ccccc45)ccn3)CC2)cc1` [Example 11] gave an IC50 of 49 nM.
`CC(C)COc1ccc2[nH]nc(-c3ccnc(N4CCOCC4)c3)c2c1` [Example 84] showed an IC50 of 5.9 nM.
For `FC(F)(F)Oc1ccc2[nH]nc(-c3ccnc(N4CCN(c5ncccn5)CC4)c3)c2c1` [Example 235], the IC50 was 476 nM.
Work on `CC(O)c1ccc2[nH]nc(-c3ccnc(N4CCOC(CCO)C4)c3)c2c1` (stereo not drawn) [Example 127] yielded an IC50 of 17 nM.

Same assay, conditions: Km ATP LanthaScreen; mean IC50 of several tests; read-out: LRRK2 IC50
For `CN1CCN(c2cc(-c3n[nH]c4ccc(-c5cnn(C)c5)cc34)ccn2)CC1=O` [Example 279], the IC50 was 2.9 nM.
Work on `CCc1cnc(-c2ccc3[nH]nc(-c4ccnc(N5CCOCC5)c4)c3c2)nc1` [Example 330] yielded an IC50 of 5.6 nM.
Work on `Cn1cncc1-c1ccc2[nH]nc(-c3ccnc(N4CCOCC4)c3)c2c1` [Example 313] yielded an IC50 of under 0.6 nM.
Molecule `Cn1cc(-c2ccc3[nH]nc(-c4ccnc(N5CCOC6(CC6)C5)c4)c3c2)cn1` [Example 379] has an IC50 of 4.2 nM.
In the case of `Cn1cnc(-c2ccc3[nH]nc(-c4ccnc(N5CCOCC5)c4)c3c2)c1` [Example 343], the IC50 is reported as 4.9 nM.
In the case of `Brc1ccc2[nH]nc(-c3ccnc(N4CCOCC4)c3)c2c1` [Example 77], the IC50 is reported as 11 nM.
In the case of `Oc1nccnc1-c1ccc2[nH]nc(-c3ccnc(N4CCOCC4)c3)c2c1` [Example 389], the IC50 is reported as under 0.6 nM.
Molecule `CCOc1ccc2[nH]nc(-c3ccnc(N[C@@H](C)CO)c3)c2c1` [Example 358] has an IC50 of 16 nM.
With `CCOc1ccc2[nH]nc(-c3ccnc(N4CC(OC)C4)c3)c2c1` [Example 359] the IC50 was 15 nM.
With `CCOc1ccc2[nH]nc(-c3ccnc(N[C@H](C)CO)c3)c2c1` [Example 357] the IC50 was 5.5 nM.
Work on `COC1CCN(c2cc(-c3n[nH]c4ccc(OC(C)C)cc34)ccn2)CC1` [Example 290] yielded an IC50 of 6 nM.
`c1ccc2c(-c3ccnc(N4CCNCC4)c3)n[nH]c2c1` [Example 75] showed an IC50 of 80 nM.
`COc1ccc2c(-c3ccnc(N4CCOCC4)c3)n[nH]c2c1` [Example 105] was tested, and the IC50 was 30 nM.
For `Oc1ccncc1-c1ccc2[nH]nc(-c3ccnc(N4CCOCC4)c3)c2c1` [Example 118], the IC50 was 70 nM.
`c1cc(-c2n[nH]c3ccc(C4CC4)cc23)cc(N2CCOCC2)n1` [Example 387] was tested, and the IC50 was 6 nM.
Molecule `Cc1ccnc(-c2ccc3[nH]nc(-c4ccnc(N5CCOCC5)c4)c3c2)n1` [Example 336] has an IC50 of 33 nM.
Molecule `Cc1cnc(-c2ccc3[nH]nc(-c4ccnc(N5CCOCC5)c4)c3c2)nc1` [Example 338] has an IC50 of 8.9 nM.
Molecule `Fc1ccc2[nH]nc(-c3ccnc(N4CCOCC4)c3)c2c1` [Example 391] has an IC50 of 61 nM.
`CCCOc1ccc2[nH]nc(-c3ccnc(N4CCN(C)CC4)c3)c2c1` [Example 294] gave an IC50 of 17 nM.
`c1cc(-c2n[nH]c3ccc(-c4ncco4)cc23)cc(N2CCOCC2)n1` [Example 325] was tested, and the IC50 was 6.9 nM.
Work on `Oc1ccc2[nH]nc(-c3ccnc(N4C5CCC4COC5)c3)c2c1` [Example 398] yielded an IC50 of 69 nM.
`COc1nccnc1-c1ccc2[nH]nc(-c3ccnc(N4CCOCC4)c3)c2c1` [Example 388] gave an IC50 of 38 nM.
`N#Cc1ccc2c(-c3ccnc(N4CCOCC4)c3)n[nH]c2c1` [Example 106] was tested, and the IC50 was 49 nM.
`FCOc1ccc2[nH]nc(-c3ccnc(N4CCOCC4)c3)c2c1` [Example 85] showed an IC50 of 10.2 nM.
`CC(C)Oc1ccc2[nH]nc(-c3ccnc(NS(=O)(=O)c4ccc5c(c4)OCCO5)c3)c2c1` [Example 260] showed an IC50 of 52.3 nM.
Molecule `CS(=O)(=O)c1ccc2[nH]nc(-c3ccnc(N4CCOCC4)c3)c2c1` [Example 369] has an IC50 of 109 nM.
With `CCOc1ccc2[nH]nc(-c3ccnc(N4CCC(OC)CC4)c3)c2c1` [Example 296] the IC50 was 7.5 nM.
Work on `COc1ccncc1-c1cc2c(-c3ccnc(N4CCOCC4)c3)n[nH]c2cc1F` [Example 323] yielded an IC50 of under 0.6 nM.
Work on `c1cnnc(-c2ccc3[nH]nc(-c4ccnc(N5CCOCC5)c4)c3c2)c1` [Example 326] yielded an IC50 of 6.4 nM.
In the case of `COc1ncnc(C)c1-c1ccc2[nH]nc(-c3ccnc(N4CCOCC4)c3)c2c1` [Ex 331], the IC50 is reported as 59 nM.
`Cn1cc(-c2ccc3[nH]nc(-c4ccnc(N5CCCC5)c4)c3c2)cn1` [Example 267] gave an IC50 of 2.9 nM.
With `c1cc(-c2n[nH]c3ccc(-c4cncs4)cc23)cc(N2CCOCC2)n1` [Example 327] the IC50 was under 0.6 nM.
With `Fc1cc2[nH]nc(-c3ccnc(N4CCOCC4)c3)c2cc1-c1ccn[nH]1` [Example 351] the IC50 was 1.1 nM.
For `COc1ccnc(F)c1-c1ccc2[nH]nc(-c3ccnc(N4CCN(S(C)(=O)=O)CC4)c3)c2c1` [Example 366], the IC50 was under 0.6 nM.
With `CCOc1ccc2[nH]nc(-c3ccnc(N4CC(O)(C(F)(F)F)C4)c3)c2c1` [Example 361] the IC50 was under 0.6 nM.
`Cn1cc(-c2cc3c(-c4ccnc(N5CCOCC5)c4)n[nH]c3cc2F)cn1` [Ex 352] was tested, and the IC50 was 12 nM.
`CC(C)Oc1ccc2[nH]nc(-c3ccnc(N4CCN(CCO)CC4)c3)c2c1` [Example 299] gave an IC50 of 2 nM.
`CC(C)Oc1ccc2[nH]nc(-c3ccnc(NS(=O)(=O)C4CC4)c3)c2c1` [Example 259] showed an IC50 of 63.2 nM.
`Cc1ccc2c(-c3ccnc(N4CCOCC4)c3)n[nH]c2c1` [Example 104] showed an IC50 of 35 nM.
`Clc1cnc(-c2ccc3[nH]nc(-c4ccnc(N5CCOCC5)c4)c3c2)nc1` [Example 334] gave an IC50 of 52 nM.
